Assays:
[1] = approximate acute toxicity (LD50) in the mouse; details: in vivo, po, per os, single administration of increasing doses, measured on the seventh day after the day of treatment
Description: In view of their high therapeutic index, the compounds of the invention can be used safely in medicine, For example, the approximate acute toxicity (LD50) of the compounds 7-trans-(2-phenyl-ethenyl)-5H-1,3,4-thiadiazolo[3,2-a]pyrimidine-5-one, 2-methyl-7-trans-(2-phenyl-ethenyl)-5H-1,3,4-thiadiazolo[3,2-a]pyrimidine- 5-one, 7-trans-[2-(2,6-dichloro-phenyl)-ethenyl]-5H-1,3,4-thiadiazolo[3,2-a]pyrimidine-5-one, 7-trans-[2-(3-pyridyl)-ethenyl]-5H-1,3,4-thiadiazolo[3,2-a]pyrimidine-5-one, 7-trans-[2-(4-fluoro-phenyl)-ethenyl]-5H-1,3,4-thiadiazolo[3,2-a]pyrimidine-5-one, 2-phenyl-7-trans-[2-(3-pyridyl)-ethenyl]-5H-1,3,4-thiadiazolo[3,2-a]pyrimidine-5-one and 2-(4-methyl-phenyl)-7-trans-[2-(3-pyridyl)-ethenyl]-5H-1,3,4-thiadiazolo[3,2-a]pyrimidine-5-one in the mouse, determined by single administration of increasing doses and measured on the seventh day after the day of treatment, is higher than 800 mg/kg per os. Analogous toxicity data have been found for the other compounds of the invention.

[2] = system: restraint ulcers; assay: inhibition of restraint ulcers in rats (anti-ulcerogenic activity, method of Bonfils et al.); type: in vivo, Sprague-Dawley male rats; details: po; approximate ED50; rat, p.o. one hour before the immobilization; 4 hours immobilization; read-out: Antiulcerogenic activity p.o., ED50
Description: The compounds of the present invention are active on the gastroenteric system, in particular they are endowed with anti-ulcerogenic and gastric anti-secretory activity and are therefore useful in therapy, for example in the prevention and treatment of peptic, e.g. duodenal, gastric and exophageal ulcers and to inhibit gastric acid secretion. The compounds of the invention are also useful for reducing the undesirable gastrointestinal side-effects resulting from systemic administration of anti-inflammatory prostaglandin synthetase inhibitors and may be, therefore, used for this purpose in association with them. The anti-ulcerogenic activity of the compounds of the invention is shown, e.g., by the fact that they are active in the test of the inhibition of restraint ulcers in rats, according to the method of Bonfils et al., (Therapie, 1960, 15, 1096; Jap. J. Pharmac. 1968, 18, 9).
Six Sprague-Dawley male rats (100-120 g) fasted 24 hours were used for the experiment: a square flexible small-mesh wire netting was used for the immobilization and 4 hours after the immobilization the rats were sacrificed, their stomachs were removed and the lesions counted under a dissecting microscope. The tested compounds were administered per os (p.o.) one hour before the immobilization.

[3] = system: gastric secretion; assay: gastric antisecretory activity in rats by the pylorus ligature technique (method of H. Shay et al.); type: in vivo, Sprague-Dawley male rats; details: 4 h; approximate ED50; rat, intraduodenal, four hours after pylorus ligature
Method: Gastric antisecretory activity was evaluated in rats by the pylorus ligature technique. Six Sprague-Dawley male rats (110-130 g) were used for each group. Twenty-four hours before the test, the rats were deprived of food but their water supply was maintained. On the day of the operation, the pylorus was ligated under light ether anaesthesia. Each compound was injected intraduodenally (i.d.) at the time of the ligature. Four hours after the ligature the rats were sacrificed, the stomach secretion was collected and centrifuged at 3500 r.p.m. for 10 minutes, and the volume, less sediment, was determined.
The amount of the free hydrochloric acid in the gastrc juice was determined by titration against 0.01N sodium hydroxide to pH 7.0 on the pH-meter.

| Compound | LD50 at 168 h [1] [mg/kg] | ED50 [2] [mg/kg] | ED50 [3] [mg/kg] |
| --- | --- | --- | --- |
| O=c1cc(/C=C/c2ccc(F)cc2)nc2scnn12 | > 800 |  |  |
| O=c1cc(/C=C/c2cccnc2)nc2sc(-c3ccccc3)nn12 [2-phenyl-7-trans-[2-(3-pyridyl)-ethenyl]-5H-1,3,4-thiadiazolo[3,2-a]pyrimidine-5-one] | > 800 | 3 |  |
| O=c1cc(/C=C/c2c(Cl)cccc2Cl)nc2scnn12 [7-trans-[2-(2,6-dichloro-phenyl)-ethenyl]-5H-1,3,4-thiadiazolo[3,2-a]pyrimidine-5-one] | > 800 |  |  |
| O=c1cc(/C=C/c2cccnc2)nc2scnn12 [7-trans-[2-(3-pyridyl)-ethenyl]-5H-1,3,4-thiadiazolo[3,2-a]pyrimidine-5-one] | > 800 |  |  |
| Cc1nn2c(=O)cc(/C=C/c3ccccc3)nc2s1 [2-methyl-7-trans-(2-phenyl-ethenyl)-5H-1,3,4-thiadiazolo[3,2-a]pyrimidine-5-one] | > 800 |  |  |
| Cc1ccc(-c2nn3c(=O)cc(/C=C/c4cccnc4)nc3s2)cc1 [2-(4-methyl-phenyl)-7-trans-[2-(3-pyridyl)-ethenyl]-5H-1,3,4-thiadiazolo[3,2-a]pyrimidine-5-one] | > 800 |  | ~50 |
| O=c1cc(/C=C/c2ccccc2)nc2scnn12 [7-trans-(2-phenyl-ethenyl)-5H-1,3,4-thiadiazolo[3,2-a]pyrimidine-5-one] | > 800 |  |  |
